Experimental data: article PMC4085797, “Synthetic Inositol Phosphate Analogs Reveal that PPIP5K2 Has a Surface-Mounted Substrate Capture Site that Is a Target for Drug Discovery” (Chemistry & Biology, 2014)
Changes are numbered by the printed parent chain. “Also recorded” adds a separate entry of the source.

Assays:
[1] = biological target: T1, PPIP5K2^KD (kinase domain of human PPIP5K2) (Homo sapiens, UniProt O43314); test: Reverse-kinase assay: ADP-driven dephosphorylation of 1,5-[PP]2-InsP4, luminescence-based assay of ATP accumulation; assay type: biochemical; settings: for inhibition of [PP]2-InsP4 metabolism (in words): 100 nM 1,5-[PP]2-InsP4, Figure 4B; for IC50: 100 nM [PP]2-InsP4, key of Figure 4B, n = 3, read-out: IC50, inhibition of ADP-driven dephosphorylation of [PP]2-InsP4
T1 construct: The kinase domain of human PPIP5K2 (PPIP5K2^KD; residues 1–366); made in house
T1 sequence (O43314 1-366): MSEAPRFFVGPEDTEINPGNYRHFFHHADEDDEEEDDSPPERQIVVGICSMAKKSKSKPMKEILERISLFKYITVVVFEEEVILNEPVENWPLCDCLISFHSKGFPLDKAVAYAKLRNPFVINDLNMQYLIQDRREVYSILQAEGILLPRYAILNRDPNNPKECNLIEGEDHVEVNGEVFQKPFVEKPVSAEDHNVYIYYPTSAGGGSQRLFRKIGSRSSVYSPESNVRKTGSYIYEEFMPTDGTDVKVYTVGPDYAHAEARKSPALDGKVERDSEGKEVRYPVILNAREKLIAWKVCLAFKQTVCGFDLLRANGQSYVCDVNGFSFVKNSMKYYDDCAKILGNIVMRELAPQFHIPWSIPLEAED
Procedure: The six compounds that were selected for the dose-response curves in the assays of ATP hydrolysis (Figure 4A) were now investigated for their effects upon diphosphoinositol polyphosphate metabolism by PPIP5K2^KD (Figure 4B). We used a high-throughput reverse-kinase assay that records ATP generated from ADP during the dephosphorylation of 100 nM 1,5-[PP]2-InsP4 ([Riley et al., 2012; Weaver et al., 2013]). Each of the tested analogs inhibited [PP]2-InsP4 metabolism by PPIP5K2^KD (Figure 4B). […] However, the inhibition by 2,5-di-O-Bn-InsP4 (10) was more unexpected because due to its bulk, and its less negative charge compared to physiological substrates, we predict it to be a poor ligand for the active site of the highly specific PPIP5K2^KD ([Wang et al., 2012]). Nevertheless, its ability to inhibit reverse-kinase activity was directly confirmed by high-performance liquid chromatography (HPLC) analysis of [PP]2-[^3H]InsP4 dephosphorylation (Figures S1A–S1C available online).
(§1) The initial InsP6 concentration was either 500 nM, 70 nM, or 40 nM. Various concentrations of 2,5-di-O-Bn-InsP4 were present as indicated. Radioactivity was assessed using an in-line Flo1 detector. The ADP-driven dephosphorylation of 100 nM 1,5-[PP]2-InsP4 by PPIP5K2^KD was usually determined by a luminescence-based assay of ATP accumulation ([Riley et al., 2012; Weaver et al., 2013]). The IC50 values were determined using GraphPad Prism v6.02 (n ≥ 3). In some experiments, 1,5-[PP]2-[^3H]InsP4 dephosphorylation by PPIP5K2^KD was assayed in 50 μl buffer containing 50 mM KCl, 20 mM HEPES pH 7.0, 7 mM MgSO4, 5 mM ADP, 1 mM EDTA. Reactions were then quenched, neutralized, and analyzed with HPLC using a Partisphere SAX column ([Weaver et al., 2013]); 1 ml fractions were collected for liquid scintillation spectrometry. The ATPase activity of PPIP5K2^KD (10–270 μg/ml) was assayed from Pi release following incubation at 37°C for 120–180 min in 20 μl reaction mixtures containing 20 mM Tris/HCl, pH 7.5, 10 mM ATP, 100 mM KCl, 0.1 mM EDTA, and 13 mM MgCl2.

[2] = biological target: T1, PPIP5K2^KD (kinase domain of human PPIP5K2); test: ATPase activity of PPIP5K2KD (Pi release); assay type: biochemical; settings: for stimulation of ATPase activity (in words): wild-type enzyme; for EC50: dose-response, key of Figure 4A, n = 3, read-out: EC50, stimulation of ATPase activities
Procedure: as §1

[3] = biological target: T1, PPIP5K2^KD (kinase domain of human PPIP5K2); set-up: method as in Weaver et al., 2013; settings: 25 μM; ref Weaver et al., 2013; cited from earlier work
PPIP5K2^KD E192G mutant = biological target: T2, PPIP5K2^KD E192G mutant (Homo sapiens, UniProt O43314, E192G); test: ATPase activity of E192G mutant; assay type: biochemical
T2 construct: The kinase domain of human PPIP5K2 (PPIP5K2^KD; residues 1–366); made in house
T2 sequence (O43314 1-366 E192G): T1 sequence (O43314 1-366) with E192G
Procedure: as §1
Protein Expression, Purification, Crystallization and Structure Determination […]
(§2) The structure was further manually rebuilt with COOT and refined with PHENIX and
(§3) REFMAC from the CCP4 package. Ligand topology and parameter files were prepared using
(§4) the PRODRG server. The molecular graphics representations were prepared with the program
(§5) PyMol (Schrödinger, LLC). The 2D ligand-protein interaction diagrams were generated by
(§6) LigPlot+. Atomic coordinates and structure factors have been deposited with the Protein Data
(§7) Bank with accession codes: 4NZM, 4NZN, 4NZO.
(§8) Mutants were generated using a site-directed mutagenesis kit (Stratagene). Pairs of complementary
primers were designed as shown below, with mutagenic primers underlined (only 5’ primers are
All mutated constructs were sequenced. Mutant proteins were expressed and purified as for wild-

PPIP5K2^KD E192Q mutant = biological target: T3, PPIP5K2^KD E192Q mutant (Homo sapiens, UniProt O43314, E192Q); test: ATPase activity of E192Q mutant; assay type: biochemical; settings: 25 μM, Figure 7E
T3 construct: The kinase domain of human PPIP5K2 (PPIP5K2^KD; residues 1–366); made in house
T3 sequence (O43314 1-366 E192Q): T1 sequence (O43314 1-366) with E192Q
Procedure: as §1
Protein Expression, Purification, Crystallization and Structure Determination
Full-length human IP6K2, the kinase domain of human PPIP5K2 (PPIP5K2KD; residues 1-
366), and the N-terminally truncated domain used for the crystallography studies (residues
41-366) were all sub-cloned, expressed and purified as before (Wang et al., 2012; Weaver et
al., 2013). […]
as §2, §3, §4, §5, §6, §7, §8
primers were designed as shown below, with mutagenic primers underlined (only 5’ primers are […]

Row | Structure (SMILES) | IC50 [1] | stimulation of ATPase activity (in words) ([2]; 25 μM, Figure 2) | EC50 [2] | other results
1 | O=P(O)(O)O[C@@H]1[C@@H](OP(=O)(O)O)[C@H](OP(=O)(O)O)[C@H](OCc2ccccc2)[C@H](OP(=O)(O)O)[C@H]1OP(=O)(O)O [compound 7, 2-O-Bn-InsP5] | 440 nM | less effective than was 2-O-Bn-5-PA-InsP4; also recorded: roughly doubling the rate of ATP hydrolysis that is induced by InsP6 | 2200 nM | inhibition of [PP]2-InsP4 metabolism (in words) [1]: equally efficient; less potent than 2-O-Bn-5-PA-InsP4 (2) at stimulating ATPase activity ([2]; from EC50 values, Figure 4A): 4 fold
2 | O=C(CP(=O)(O)O)O[C@@H]1[C@@H](OP(=O)(O)O)[C@H](OP(=O)(O)O)[C@H](OP(=O)(O)O)[C@H](OP(=O)(O)O)[C@H]1OP(=O)(O)O [compound 1, 5-O-α-phosphonoacetyl-myo-inositol 1,2,3,4,6-pentakisphosphate] | 140 nM | – | 1200 nM | inhibition of [PP]2-InsP4 metabolism (in words) [1]: most potent inhibitor; stimulation of ATP hydrolysis ([2]; 25 μM analog): 5 fold
3 | O=C(CP(=O)(O)O)O[C@@H]1[C@@H](OP(=O)(O)O)[C@H](OP(=O)(O)O)[C@H](O)[C@H](OP(=O)(O)O)[C@H]1OP(=O)(O)O [compound 3, 5-PA-InsP4] | – | dramatically reduced | – | –
4 | CCCC(=O)O[C@H]1[C@@H](OP(=O)(O)O)[C@H](OP(=O)(O)O)[C@@H](OP(=O)(O)O)[C@H](OP(=O)(O)O)[C@H]1OP(=O)(O)O [compound 5, 2-O-butanoyl-InsP5] | – | sharp reduction in activity | – | –
5 | O=C(O[C@H]1[C@@H](OP(=O)(O)O)[C@H](OP(=O)(O)O)[C@@H](OP(=O)(O)O)[C@H](OP(=O)(O)O)[C@H]1OP(=O)(O)O)c1ccccc1 [compound 4, 2-O-benzoyl-InsP5] | – | only a minimal reduction in ATPase-stimulating activity | – | –
6 | O=P(O)(O)O[C@@H]1[C@@H](OP(=O)(O)O)[C@H](OP(=O)(O)O)[C@H](O)[C@H](OP(=O)(O)O)[C@H]1OP(=O)(O)O [Ins(1,3,4,5,6)P5] | – | – | – | activation of substrate-stimulated ATPase activity [3]: 2- to 3 fold
7 | O=P(O)(O)O[C@@H]1[C@H](OCc2ccccc2)[C@H](OP(=O)(O)O)[C@@H](OP(=O)(O)O)[C@H](OP(=O)(O)OP(=O)(O)O)[C@H]1OP(=O)(O)O [compound 8, 2-O-Bn-5-PP-InsP4] | 500 nM | – | 2600 nM | rate of ligand-stimulated ATPase activity vs wild-type (in words) (PPIP5K2^KD E192G mutant): neither of these particular mutations altered the rate; rate of ligand-stimulated ATPase activity vs wild-type (in words) (PPIP5K2^KD E192Q mutant): neither of these particular mutations altered the rate; more effective at stimulating ATPase activity than 2-O-Bn-5-PA-IP4 (2) ([2]; 25 μM, Figure 2): 20%
8 | O=P(O)(O)O[C@@H]1[C@@H](OP(=O)(O)OP(=O)(O)O)[C@H](OP(=O)(O)O)[C@@H](OP(=O)(O)O)[C@@H](O)[C@H]1OP(=O)(O)O [compound 9, 5-PP-InsP4] | 2400 nM | about half the rate shown by 2-O-Bn-5-PP-InsP4 (8) | 8800 nM | –
9 | NCCO[C@H]1[C@@H](OP(=O)(O)O)[C@H](OP(=O)(O)O)[C@@H](OP(=O)(O)O)[C@H](OP(=O)(O)O)[C@H]1OP(=O)(O)O [compound 6, 2-O-(2-aminoethyl)-InsP5] | – | did not stimulate ATPase activity | – | –
